Reference: patent US20110028719A1, “SCREENING METHODS FOR AMYLOID BETA MODULATORS” (priority 2006, published 2011)
Counter-ions that a name gives are not always drawn.

Target: immobilized Aβ fibrils (Homo sapiens, UniProt P05067)
Assay: FAC-MS assay of free Aβ monomer (indicator) binding to immobilized Aβ fibrils in the presence of test compounds
Settings: FAC-MS % shift of breakthrough time of free Aβ1-42 monomer (1 μM) on immobilized Aβ fibrils; compounds 1-10 μM in 20 mM NH4OAc, 1% DMSO; void marker M3

immobilized Aβ fibrils, sequence (P05067 672-713 limits assumed): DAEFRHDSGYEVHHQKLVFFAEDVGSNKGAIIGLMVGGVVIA

| Molecule | % of Shift |
| --- | --- |
| COC1C(O)C2OC3(CCCCC3)OC2C2OC3(CCCCC3)OC12 (racemic) [Compound 53226-6, 1,2,3,4-DL-O-cyclohexyldene-5-O-methyl-L-chiro-inositol, reference compound] | 2% |
| CC(C)(C)C(=O)OC1C(O)C(OC(=O)C(C)(C)C)C(OC(=O)C(C)(C)C)C(OC(=O)C(C)(C)C)C1OC(=O)C(C)(C)C (centres unmarked) [Compound 37387002, 2,3,4,5-tetrakis[(2,2-dimethylpropanoyl)oxy]-6-hydroxycyclohexyl pivalate] | 5% |
| [H]/N=C(/N)N[C@H]1[C@H](O)[C@@H](O)[C@H](O[C@@H]2O[C@@H](C)[C@](O)(C=O)[C@H]2O[C@@H]2O[C@@H](CO)[C@H](O)[C@@H](O)[C@@H]2NC)[C@@H](N/C(N)=N\[H])[C@@H]1O [Compound 56501, Streptomycin sulfate, reference compound] | 1% |
| 1,2,5,6-bis-O-(1-Methylethyldene)-3-methyl-1D-chiro-inositol [Compound 53234-7, reference compound] | 4% |
| CC(C)(C)C(=O)OC1C(OC(=O)C(C)(C)C)C(OC(=O)C(C)(C)C)C(OC(=O)C(C)(C)C)C(OC(=O)C(C)(C)C)C1OC(=O)C(C)(C)C (centres unmarked) [Compound 37387008, 2,3,4,5,6-pentakis[(2,2-dimethylpropanoyl)oxy]cyclohexyl pivalate] | 4% |
| CC(=O)OC1C(OC(=O)CC(C)C)C(OC(=O)CC(C)C)C(OC(=O)CC(C)C)C(OC(=O)CC(C)C)C1OC(=O)CC(C)C (centres unmarked) [Compound 37387013, 2-(acetyloxy)-3,4,5,6-tetrakis[(3-methylbutanoyl)oxy]cyclohexanyl 3-methylbutanoate] | 3% |

Same assay, conditions: FAC-MS screen; shift of free Aβ monomer breakthrough on immobilized Aβ fibrils in presence of compound; scale not given

| Molecule | Aβ Shift |
| --- | --- |
| O=C(O)C12CC3CC(C(=O)O)(C1)CC(C(=O)O)(C3)C2 | 2 |
| CC(C)=CCCC12CCC(CO)(CO1)C(C)C2 (centres unmarked) | 1 |
| CC12CC3CC(C)(C1)CC(CN)(C3)C2 | 2 |
| CCCCCCCCCC(=O)NC1CCCC(C)C1C (centres unmarked) | 0 |
| COC(=O)C1(C)CC2(C)CC(C)(C1)C(=O)N(C)C2=O (centres unmarked) | 1 |
| CC1CCCC(n2cnc3cc(C(=O)O)ccc32)C1C (centres unmarked) | 1 |
| CC12CC3CC(C)(C1)CC(C(Cl)C(=O)O)(C3)C2 (centres unmarked) | 1 |
| C=CC1CCC(O)C(N(C)C(=S)Nc2ccccc2)C1 (centres unmarked) | 1 |
| CC12CC3CC(C)(C1)CC(C(=O)NC(C)(C)CO)(C3)C2 | 1 |
| OCC1(CO)CCCC(CO)(CO)C1O | 1 |
| CC12CC3CC(CO)(C1)CC(c1ccccc1)(C3)C2 (centres unmarked) | 1 |
| CC1CCC(C(C)C)C(OCC(O)CN2CCCCC2)C1 (centres unmarked) | 1 |
| COc1cccc(C(=O)OC2CC(C)CC(C)C2)c1 (centres unmarked) | 0 |
| CC1CC(OC(=O)/C=C/c2ccccc2)CC(C(C)C)C1 (centres unmarked) | 0 |
| CC(=O)O[C@H]1[C@@H](OC(=O)CC(C)C)[C@H](OC(=O)CC(C)C)[C@@H](OC(=O)CC(C)C)[C@H](OC(=O)CC(C)C)[C@H]1OC(=O)CC(C)C | 3 |
| CC12CC3(C)CC(C)(C1)CC(C(N)=O)(C2)C3 | 1 |
| CC1C(C(=O)Nc2ccccc2)CCCC1(C)C(=O)O (centres unmarked) | 1 |
| CC12CC3CC(C)(C1)CC(C(=O)NNC(N)=O)(C3)C2 | 1 |
| CC12CC3(C)CC(C)(C1)CC(NC(=O)NC(C)(C)C)(C2)C3 | 1 |
| CC1CCC(COC(=O)CN2CCOCC2)C(C)C1 (centres unmarked) | 1 |
| COC1CCC(C(C)=O)C(O)C1 (centres unmarked) | 1 |
| CCC(=O)OC1CCC(C)CC1C(C)(C)C(C)C (centres unmarked) | 1 |
| CC1(C(=O)O)CC(C)(C(=O)O)CC(C)(C(=O)O)C1 (centres unmarked) | 1 |

| Molecule | Aβ Shift |
| --- | --- |
| CC1CC(NC(=O)c2nc[nH]n2)CC(C)(C)C1 (centres unmarked) | 1 |
| CC(=O)c1[nH]c(C)c(C(=O)NC2CCCC(C)C2C)c1C (centres unmarked) | 1 |
| CC12CC3(C)CC(C)(C1)CC(C(=O)NC(C)(C)CO)(C2)C3 | 1 |
| CN(C)C(=O)C12CC3(C)CC(C)(CC(C)(C3)C1)C2 | 1 |
| CC(=O)NC1CC(Cl)CCC1C (centres unmarked) | 1 |
| CC1CCCC(NC(=O)CCC2CCCCC2)C1C (centres unmarked) | 0 |
| CC1CCC(C(C)(C)C)C(O)C1 (centres unmarked) | 1 |
| Cc1cccc(NC(=O)C23CC4CC(C)(CC(C)(C4)C2)C3)c1 | 2 |
| CC12CC3(C)CC(C)(C1)CC(CC(=O)O)(C2)C3 | 1 |
| CC(N)C12CC3CC(C)(CC(C)(C3)C1)C2 (centres unmarked) | 0 |
| Cc1cc[n+](CC(=O)OC2CC(C)CCC2C(C)C)cc1 (centres unmarked) | 1 |
| CC1CCCC(N2CNC(=S)NC2)C1C (centres unmarked) | 2 |
| CC12CC3CC(C)(C1)CC(c1ccc(O)cc1)(C3)C2 | 2 |
| CC12CC3(C)CC(CC(=O)O)(C1)CC(CC(=O)O)(C2)C3 | 1 |
| CC(=O)OCC12COC(C)(CC1C)CC2C (centres unmarked) | 1 |
| CC1CCCC(NC(=O)Cn2cc3c(n2)CCCC3)C1C (centres unmarked) | 1 |
| CC(=O)NC12CC3(C)CC(C)(CC(C)(C3)C1)C2 | 0 |
| CC1CCCC(NC(=O)Cc2cn(C)c3ccccc23)C1C (centres unmarked) | 2 |
| CC1CCCC(NC(=O)c2cc3sccc3n2C)C1C (centres unmarked) | 2 |
| CC1CCC(C(C)C)C(OC(=O)CN2CCOCC2)C1 (centres unmarked) | 1 |
| COc1cccc(OC)c1C(=O)OC1CC(C)CC(C)C1 (centres unmarked) | 0 |
| CC1(C)CC2(C)CC(O)(C1)C13CCC(C)(C)CC1(C2)O3 (centres unmarked) | 0 |
| CC1C2CC3(C)CC1(C)CC(C1(C)CC(=O)O1)(C2)C3 (centres unmarked) | 1 |

| Molecule | Aβ Shift |
| --- | --- |
| Cc1ccc(C(=O)OC2CC(C)CCC2C(C)C)cc1C (centres unmarked) | 2 |
| CC12CC3CC(C)(C1)CC(C(=O)NC1=NCCS1)(C3)C2 | 1 |
| CC12CC3(C)CC(CC(N)=O)(C1)CC(C(N)=O)(C2)C3 | 0 |
| COC(=O)CNC(=O)C12CC3(C)CC(C)(CC(C)(C3)C1)C2 | 1 |
| CC(=O)O[C@@H]1[C@@H](OC(=O)C(C)(C)C)[C@H](OC(=O)C(C)(C)C)[C@H](OC(C)=O)[C@H](OC(=O)C(C)(C)C)[C@H]1OC(=O)C(C)(C)C | 4 |
| CC12CC3CC(C)(C1)CC(CNC(=O)c1ccccc1)(C3)C2 | 1 |
| CC1CCC(C(C)C)C(OC(=O)c2ccncc2)C1 (centres unmarked) | 1 |
| CC12CC3CC(O)(C1)CC(O)(C3)C2 | 1 |
| O=C(O)C1C2CC3C(C2Cl)C31 (centres unmarked) | 1 |
| CC1CC(NS(=O)(=O)c2cccs2)CC(C)(C)C1 (centres unmarked) | 2 |
| CCC12CC3CC(O)(CC(O)(C3)C1)C2 | 1 |
| CC(C)(C)C1CC(C(=O)O)CC(C(=O)O)C1 (centres unmarked) | 0 |
| CC12CC3(C)CC(C(=O)O)(C1)CC(C(=O)O)(C2)C3 | 1 |
| CC1CCCC(n2c(=S)[nH]c3ccccc3c2=O)C1C (centres unmarked) | 1 |
| O=S(=O)(c1ccccc1)C1C2CC3C(C2Cl)C31 (centres unmarked) | 0 |
| Cc1cccc(NC(=O)C23CCC(C)(C(O)C2)C3(C)C)n1 (centres unmarked) | 0 |
| CC(CCc1ccc(O)cc1)NC1CCCC(C)C1C (centres unmarked) | 1 |
| CC12CC3(C)CC(C)(C1)CC(C(=O)NC(C)(C)C)(C2)C3 | 2 |
| CC(C)CC(=O)O[C@@H]1[C@@H](OC(=O)CC(C)C)[C@H](OC(=O)CC(C)C)[C@H](O)[C@H](OC(=O)CC(C)C)[C@H]1OC(=O)CC(C)C | 2 |
| CC1CCCC(NC(=O)C2CCCCC2C(=O)O)C1C (centres unmarked) | 0 |
| CC12CC3CC(C)(C1)CC(CN1CCOCC1)(C3)C2 | 1 |
| Cc1nn(CC(=O)NC2CCCC(C)C2C)c2ccccc12 (centres unmarked) | 1 |
